Active and inactive are the calls of the source. No cut-off for these calls is given here.
Assays:
[1] = Cytotoxicity against Spodoptera frugiperda Sf9 cells assessed as reduction in cell viability; type: cell-based
[2] = Cytotoxicity against Aedes albopictus NIAS-AeAl-2 cells assessed as reduction in cell viability; type: functional, cell-based
[3] = Effect on 28s ribosomal RNA expression in Spodoptera frugiperda Sf9 cells; type: functional
HL-60 = assay: Cytotoxicity against human HL60 cells assessed as reduction in cell viability; type: functional, cell-based
Sf9 = assay: Induction of DNA degradation in Spodoptera frugiperda Sf9 cells by DNA ladder assay; type: functional, cell-based

COc1ccc(C[C@@H]2COC(=O)[C@H]2Cc2ccc(C)cc2)cc1OC gave an IC50 [1] of 42 µM.

O=C1OC[C@H](Cc2ccccc2O)[C@H]1Cc1ccc(I)cc1 showed an IC50 [1] of 18 µM.

In the case of COc1cc(C[C@@H]2C(=O)OC[C@H]2Cc2ccc(OC)c(OC)c2)ccc1O, the IC50 [2] is reported as 28 µM, the IC50 [1] is reported as 80 µM and the Activity [3] is reported as “Active”. For the same molecule, the IC50 (HL-60) was 23 µM.

For COc1ccc(C[C@H]2COC(=O)[C@@H]2Cc2ccc(F)c(F)c2)cc1OC, the IC50 [2] was 13 µM and the IC50 [1] was 64 µM.

In the case of COc1ccc(C[C@H]2COC(=O)[C@@H]2Cc2ccc(C)cc2)cc1OC, the IC50 [2] is reported as 3.5 µM and the IC50 [1] is reported as 11 µM.

Molecule COc1cccc(C[C@H]2C(=O)OC[C@@H]2Cc2ccc(OC)c(OC)c2)c1 has an IC50 [1] of 17 µM.

COc1ccc(C[C@@H]2COC(=O)[C@H]2Cc2ccc(I)cc2)cc1OC gave an IC50 [1] of 25 µM.

O=C1OC[C@H](Cc2ccccc2F)[C@H]1Cc1ccc(I)cc1 showed an IC50 [1] of 20 µM.

For COc1ccc(C[C@H]2COC(=O)[C@@H]2Cc2ccccc2)cc1OC, the IC50 [1] was 19 µM.

With COc1ccc(C[C@H]2COC(=O)[C@@H]2Cc2ccccc2I)cc1OC the IC50 [1] was 18 µM.

COc1cc(C[C@H]2COC(=O)[C@@H]2Cc2ccc(I)cc2)ccc1O showed an IC50 [1] of 19 µM.

COc1cccc(C[C@H]2COC(=O)[C@@H]2Cc2ccc(I)cc2)c1 showed an IC50 [1] of 15 µM.

In the case of COc1ccc(C[C@H]2COC(=O)[C@@H]2Cc2ccc(Cl)cc2)cc1OC, the IC50 [2] is reported as 2.3 µM and the IC50 [1] is reported as 10 µM.

In the case of COc1cc(C[C@H]2C(=O)OC[C@@H]2Cc2ccc(OC)c(OC)c2)ccc1O [ARCTIGENIN], the IC50 [2] is reported as 0.73 µM, the Activity (Sf9) is reported as “inactive” and the IC50 [1] is reported as 6.7 µM. For the same molecule, the Activity [3] was “Active” and the IC50 (HL-60) was 13 µM.

COc1ccc(C[C@H]2COC(=O)[C@@H]2Cc2ccc(I)cc2)cc1OC showed an IC50 [2] of 2.9 µM and an IC50 [1] of 6.3 µM.

With COc1ccccc1C[C@H]1C(=O)OC[C@@H]1Cc1ccc(OC)c(OC)c1 the IC50 [1] was 24 µM.

O=C1OC[C@H](Cc2ccccc2Cl)[C@H]1Cc1ccc(I)cc1 gave an IC50 [1] of 21 µM.

COc1ccc(C[C@@H]2C(=O)OC[C@H]2Cc2ccc(OC)c(OC)c2)cc1 showed an IC50 [1] of 47 µM.

Work on O=C1OC[C@H](Cc2cccc(Cl)c2)[C@H]1Cc1ccc(I)cc1 yielded an IC50 [1] of 27 µM.

COc1ccc(C[C@H]2COC(=O)[C@@H]2Cc2ccccc2C(F)(F)F)cc1OC gave an IC50 [1] of 25 µM.

Work on COc1ccc(C[C@H]2COC(=S)[C@@H]2Cc2ccccc2C)cc1OC yielded an IC50 [1] of 19 µM.

COc1ccc(C[C@@H]2COC(=O)[C@H]2Cc2ccc3c(c2)OCO3)cc1OC showed an IC50 [1] of 41 µM.

Molecule COc1ccc(C[C@H]2COC(=O)[C@@H]2Cc2ccccc2O)cc1OC has an IC50 [2] of 17 µM and an IC50 [1] of 54 µM.

COc1ccc(C[C@H]2COC(=O)[C@@H]2Cc2cc(OC)c(O)c(OC)c2)cc1OC showed an IC50 [1] of 9.1 µM.

COc1ccc(C[C@H]2COC(=O)[C@@H]2Cc2ccc(F)cc2)cc1OC showed an IC50 [2] of 8.3 µM and an IC50 [1] of 28 µM.

COc1ccc(C[C@H]2COC(=O)[C@@H]2Cc2cccc(C)c2)cc1OC showed an IC50 [1] of 12 µM.

COc1cc(C[C@H]2C(=O)OC[C@H]2Cc2ccc(OC)c(OC)c2)ccc1O gave an IC50 [2] of 57 µM, an IC50 [1] of over 100 µM and an IC50 (HL-60) of 13 µM.

In the case of COc1cc(C[C@@H]2C(=O)OC[C@@H]2Cc2ccc(OC)c(OC)c2)ccc1O, the IC50 [2] is reported as 6.3 µM, the IC50 [1] is reported as 13 µM and the IC50 (HL-60) is reported as 8.5 µM.

With COc1ccc(C[C@H]2COC(=O)[C@@H]2Cc2cccc3c2OCO3)cc1OC the IC50 [1] was 46 µM.

Work on COc1ccc(C[C@H]2COC(=O)[C@@H]2Cc2ccc(I)cc2)cc1O yielded an IC50 [1] of 21 µM.

Molecule COc1ccc(C[C@H]2COC(=O)[C@@H]2Cc2cccc(F)c2)cc1OC has an IC50 [1] of 23 µM.

Molecule COc1ccc(C[C@@H]2COC(=O)[C@H]2Cc2ccc(O)cc2)cc1OC has an IC50 [1] of 29 µM.

Molecule COc1ccc(C[C@H]2COC(=O)[C@@H]2Cc2ccc(O)c(O)c2)cc1OC has an IC50 [1] of 10 µM.

O=C1OC[C@H](Cc2ccc(C(F)(F)F)cc2)[C@H]1Cc1ccc(I)cc1 showed an IC50 [1] of 15 µM.

Work on COc1ccc(C[C@H]2COC(=O)[C@@H]2Cc2cccc(I)c2)cc1OC yielded an IC50 [1] of 5.4 µM.

Molecule COc1ccc(C[C@H]2COC(=O)[C@@H]2Cc2ccc(C)c(C)c2)cc1OC has an IC50 [1] of 9.3 µM.

In the case of COc1ccc(C[C@H]2COC(=O)[C@@H]2Cc2cccc(C(F)(F)F)c2)cc1OC, the IC50 [1] is reported as 19 µM.

For COc1ccc(C[C@H]2COC(=O)[C@@H]2Cc2ccc(C(F)(F)F)cc2)cc1OC, the IC50 [2] was 10 µM and the IC50 [1] was 20 µM.

In the case of Cc1cccc(C[C@H]2COC(=O)[C@@H]2Cc2ccc(I)cc2)c1, the IC50 [1] is reported as 24 µM.

Work on O=C1OC[C@H](Cc2ccc3c(c2)OCCO3)[C@H]1Cc1ccc(I)cc1 yielded an IC50 [1] of 10 µM.

Work on COc1ccc(C[C@H]2COC(=S)[C@@H]2Cc2ccc3c(c2)OCO3)cc1OC yielded an IC50 [1] of 7.2 µM.

In the case of COc1ccc(C[C@H]2COC(=O)[C@@H]2Cc2ccc(Br)cc2)cc1OC, the IC50 [1] is reported as 9.1 µM.

COc1ccc(C[C@H]2COC(=O)[C@@H]2Cc2ccc3c(c2)OCO3)cc1OC [(-)-KUSUNOKININ] showed an IC50 [2] of 2.7 µM and an IC50 [1] of 8.2 µM.

For CCc1ccc(C[C@H]2C(=O)OC[C@@H]2Cc2ccc(OC)c(OC)c2)cc1, the IC50 [1] was 17 µM.

COc1ccccc1C[C@H]1COC(=O)[C@@H]1Cc1ccc(I)cc1 showed an IC50 [1] of 22 µM.

Molecule COc1ccc(C[C@H]2COC(=S)[C@@H]2Cc2ccc(I)cc2)cc1OC has an IC50 [2] of 2.4 µM and an IC50 [1] of 4.7 µM.

With O=C1OC[C@H](Cc2ccc(F)cc2)[C@H]1Cc1ccc(I)cc1 the IC50 [1] was 22 µM.

O=C1OC[C@H](Cc2cccc(C(F)(F)F)c2)[C@H]1Cc1ccc(I)cc1 showed an IC50 [1] of 19 µM.

With COc1ccc(C[C@H]2C(=O)OC[C@@H]2Cc2ccc(OC)c(OC)c2)cc1 the IC50 [2] was 4.3 µM and the IC50 [1] was 11 µM.

With Cc1ccccc1C[C@H]1COC(=O)[C@@H]1Cc1ccc(I)cc1 the IC50 [1] was 21 µM.

For COc1ccc(C[C@H]2COC(=O)[C@@H]2Cc2ccccc2F)cc1OC, the IC50 [1] was 43 µM.

Molecule COc1ccc(C[C@H]2COC(=O)[C@@H]2Cc2ccc(Cl)c(Cl)c2)cc1OC has an IC50 [1] of 25 µM.

In the case of COc1ccc(C[C@H]2COC(=O)[C@@H]2Cc2ccc(I)cc2)cc1, the IC50 [1] is reported as 21 µM.

For COc1ccc(C[C@@H]2COC(=O)[C@H]2Cc2ccc(Cl)cc2)cc1OC, the IC50 [1] was 40 µM.

For COc1ccc(C[C@H]2COC(=O)[C@@H]2Cc2ccc(O)cc2)cc1OC, the IC50 [2] was 1 µM and the IC50 [1] was 9.9 µM.

O=C1OC[C@H](Cc2ccc(Cl)cc2)[C@H]1Cc1ccc(I)cc1 gave an IC50 [1] of 18 µM.

Molecule COc1ccc(C[C@H]2COC(=O)[C@@H]2Cc2ccccc2C)cc1OC has an IC50 [1] of 28 µM.

COc1ccc(C[C@H]2COC(=O)[C@@H]2Cc2cccc(O)c2)cc1OC showed an IC50 [1] of 22 µM.

Molecule COc1ccc(C[C@H]2C(=O)OC[C@@H]2Cc2ccc(OC)c(OC)c2)cc1O has an IC50 [1] of 19 µM.

O=C1OC[C@H](Cc2cccc(O)c2)[C@H]1Cc1ccc(I)cc1 showed an IC50 [1] of 18 µM.

COc1ccc(C[C@H]2COC(=O)[C@@H]2Cc2ccc(OC)c(OC)c2)cc1OC gave an IC50 [1] of 15 µM.

With O=C1OC[C@H](Cc2cccc(F)c2)[C@H]1Cc1ccc(I)cc1 the IC50 [1] was 22 µM.

For O=C1OC[C@H](Cc2ccc(O)cc2)[C@H]1Cc1ccc(I)cc1, the IC50 [1] was 21 µM.

For O=C1OC[C@H](Cc2ccccc2C(F)(F)F)[C@H]1Cc1ccc(I)cc1, the IC50 [1] was 24 µM.

In the case of COc1ccc(C[C@H]2COC(=O)[C@@H]2Cc2ccc(C(C)(C)C)cc2)cc1OC, the IC50 [1] is reported as 17 µM.

In the case of COc1ccc(C[C@H]2COC(=O)[C@@H]2Cc2ccccc2Cl)cc1OC, the IC50 [1] is reported as 24 µM.

With COc1ccc(C[C@H]2COC(=O)[C@@H]2Cc2ccc(O)c(C)c2)cc1OC the IC50 [1] was 11 µM.

In the case of COc1ccc(C[C@H]2COC(=O)[C@@H]2Cc2cccc(Cl)c2)cc1OC, the IC50 [1] is reported as 17 µM.

Work on O=C1OC[C@H](Cc2ccc3c(c2)OCO3)[C@H]1Cc1ccc(I)cc1 yielded an IC50 [1] of 12 µM.

Cc1ccc(C[C@H]2COC(=O)[C@@H]2Cc2ccc(I)cc2)cc1 gave an IC50 [1] of 20 µM.

COc1ccc(C[C@H]2COC(=O)[C@@H]2Cc2cc(F)c(F)c(F)c2)cc1OC gave an IC50 [1] of 44 µM.

With O=C1OC[C@H](Cc2ccccc2)[C@H]1Cc1ccc(I)cc1 the IC50 [1] was 24 µM.

For COc1ccc(C[C@H]2COC(=O)[C@@H]2Cc2ccc3c(c2)OCCO3)cc1OC, the IC50 [1] was 15 µM.

For COc1ccc(C[C@H]2COC(=S)[C@@H]2Cc2cc(F)c(F)c(F)c2)cc1OC, the IC50 [2] was 15 µM and the IC50 [1] was 22 µM.
